In the data set the test system is Bovine Serum Albumin (BSA). Description: In vitro anti-carbonylation efficacy test (acrolein-induced carbonylation of BSA, Protein Carbonyl Assay Kit). The following applies: BSA + acrolein in PBS, 37° C. overnight; for % inhibition of carbonylation (average): blank = 0%; for Percentage of protein carbonylation level (average): blank = 100%.
Setting [1] is: agent working concentration 0.005%.
[2] abbreviates: agent working concentration 0.05%.

The source of these data is patent publication US20260000601A1, “Anti-Carbonylation Composition And Method Of Protecting Keratin Materials From Carbonylation Stimuli By Using Compositions Including Polylysines” (ELC Management LLC, priority 2022, published 2026).

Description: This assay provides an in vitro method to determine how an anti-carbonylation agent/composition affects the extent of protein carbonylation. With deionized water, the anti-carbonylation agent/composition to be tested was made into a 1% solution, Bovine Serum Albumin (BSA) was made into a 10 mg/mL solution, and Acrolein was made into a 10 mM solution. Then, in a 1.5 mL centrifuge tube, according to the content in Table 1, BSA (10 mg/mL), anti-carbonylation agent/composition (1%), Acrolein (10 mM) and Phosphate buffer solution (PBS) were added to the centrifuge tube. The sample containing only BSA and PBS served as a baseline, and the sample containing BSA, Acrolein and PBS served as a blank. The final liquid volume in each centrifuge tube was 1.0 mL. Each group contained three replicate samples, and all samples were placed at 37° C. overnight.
The protein carbonyl content in the above samples was detected by using the Protein Carbonyl Assay Kit of Nanjing Jiancheng Bioengineering Institute. The detection methods are as follows: take 0.1 mL of sample into the assay tube, then add 0.4 mL of reagent 3 in the kit, vortex to mix for 1 min, and react at 37° C. for 30 min in the dark. Add 0.5 mL of reagent 5 in the kit, vortex and mix for 1 min, centrifuge at 12,000 r/min for 10 min at 4° C., discard the supernatant, and leave the pellet. Add 1.0 mL of anhydrous ethanol and ethyl acetate (1:1) mixed solution, vortex to mix for 1 min, centrifuge at 12,000 r/min for 10 min at 4° C., discard the supernatant, leave the precipitate, and repeat the above steps four times. Add 1.25 mL of reagent VI in the kit, mix well, place it in 37° C. for 15 min, vortex to mix, dissolve all the precipitates, and centrifuge at 12,000 r/min for 15 minutes. Take the supernatant in a quartz cuvette with a light diameter of 0.5 cm, adjust the zero with reagent six, and measure the absorbance value of each tube at 370 nm (ultraviolet). According to the formula, we can get the protein carbonyl content.
The protein content of the samples was determined using Thermos's Micro BCA™ Protein Assay Kit. First, prepare Diluted Albumin (BSA) Standards (Working Range=20-750 μg/mL). Mix BCA Reagent A with Reagent B (Reagent A:Reagent B=50:1) to prepare working solution. Take 25 μL each of the protein standard at different dilution concentration and the protein sample, add them to the microplate. Add 200 μL of working solution to each well and mix well by shaking on a shaker for 30 s. The microplate was sealed and incubated at 37° C. for 30 min. Cool the microplate to room temperature and measure the absorbance of the sample at a wavelength of 562 nm. The corrected absorbance value is the absorbance value of the blank sample subtracted from the readings of each standard and sample. The protein concentration was read against a standard curve prepared with known amounts of BSA. Referring to the standard curve, according to the corrected absorbance value of each protein sample, read the protein concentration of each sample within the linear range of the standard curve. Calculate the amount of protein in the original sample based on the sample volume and dilution.
The anti-carbonylation capability of each anti-carbonylation agents/composition can be obtained by dividing the carbonylation degree of the sample by the BSA protein content.

In the case of `NCCCC[C@H](N)C(=O)O` [L-Lysine], the “% inhibition of carbonylation (average)” value under setting [1] is 21% and the “% inhibition of carbonylation (average)” value under setting [2] is 40%. Besides, the “Percentage of protein carbonylation level (average)” value came out at 79% under setting [1] and 60% under setting [2].

On to “Dendritic PL: dendritic polylysine, DendriClear from Lucas Meyer, Mw = 6171”, for which the “Percentage of protein carbonylation level (average)” value is, setting by setting: under setting [1], 43%; under setting [2], 19%.
